Test results from ChEMBL document CHEMBL5104202, “Structure-Uptake Relationship Studies of Oxazolidinones in Gram-Negative ESKAPE Pathogens” (J Med Chem, 2022).

Key:
Format in all cases: functional, organism-based
Pseudomonas aeruginosa [1] = experiment: Antibacterial activity against efflux pump lacking/recombinant OM pore producing Pseudomonas aeruginosa assessed as inhibition of bacterial growth
Acinetobacter baumannii [2] = experiment: Antibacterial activity against recombinant OM pore producing Acinetobacter baumannii assessed as inhibition of bacterial growth
Escherichia coli [3] = experiment: Antibacterial activity against recombinant OM pore producing Escherichia coli assessed as inhibition of bacterial growth
Escherichia coli [4] = experiment: Antibacterial activity against efflux pump lacking/recombinant OM pore producing Escherichia coli assessed as inhibition of bacterial growth
Pseudomonas aeruginosa [5] = experiment: Antibacterial activity against wild type Pseudomonas aeruginosa assessed as inhibition of bacterial growth
Escherichia coli [6] = experiment: Antibacterial activity against wild type Escherichia coli assessed as inhibition of bacterial growth
Escherichia coli [7] = experiment: Antibacterial activity against efflux pump lacking Escherichia coli assessed as inhibition of bacterial growth
Acinetobacter baumannii [8] = experiment: Antibacterial activity against efflux pump lacking Acinetobacter baumannii assessed as inhibition of bacterial growth
Pseudomonas aeruginosa [9] = experiment: Antibacterial activity against recombinant OM pore producing Pseudomonas aeruginosa assessed as inhibition of bacterial growth
Acinetobacter baumannii [10] = experiment: Antibacterial activity against wild type Acinetobacter baumannii assessed as inhibition of bacterial growth
Pseudomonas aeruginosa [11] = experiment: Antibacterial activity against efflux pump lacking Pseudomonas aeruginosa assessed as inhibition of bacterial growth
Acinetobacter baumannii [12] = experiment: Antibacterial activity against efflux pump lacking/recombinant OM pore producing Acinetobacter baumannii assessed as inhibition of bacterial growth

| SMILES | IC50 (Pseudomonas aeruginosa [1]) | IC50 (Acinetobacter baumannii [2]) | IC50 (Escherichia coli [3]) | IC50 (Escherichia coli [4]) | IC50 (Pseudomonas aeruginosa [5]) | IC50 (Escherichia coli [6]) | IC50 (Escherichia coli [7]) | IC50 (Acinetobacter baumannii [8]) | IC50 (Pseudomonas aeruginosa [9]) | IC50 (Acinetobacter baumannii [10]) | IC50 (Pseudomonas aeruginosa [11]) | IC50 (Acinetobacter baumannii [12]) |
| --- | --- | --- | --- | --- | --- | --- | --- | --- | --- | --- | --- | --- |
| O=C1O[C@@H](CO)CN1c1ccc(-c2ccccc2OC(F)(F)F)c(F)c1 | 29.9 µM | 59.1 µM | 46.3 µM | 21.9 µM | > 100 µM | 42.6 µM | 9.3 µM | 33.2 µM | > 100 µM | > 100 µM | 75.6 µM | 24.8 µM |
| COC(=O)Cn1cc(C#Cc2ccc(N3C[C@H](CO)OC3=O)cc2F)cn1 | > 100 µM | > 100 µM | 52.3 µM | 36.6 µM | > 100 µM | > 100 µM | 88.7 µM | > 100 µM | > 100 µM | > 100 µM | > 100 µM | 62 µM |
| CC(C)[n+]1ccc(-c2ccc(N3C[C@H](CO)OC3=O)cc2F)cc1 | 36.6 µM | 22 µM | 42.8 µM | 16.6 µM | > 100 µM | 81.6 µM | 16.9 µM | 34.5 µM | > 100 µM | 89.5 µM | 35.1 µM | 22.3 µM |
| O=C1O[C@@H](CO)CN1c1ccc(-c2ccccc2)c(F)c1 | 1.4 µM | 5.5 µM | 2 µM | 0.3 µM | > 100 µM | 18.4 µM | 0.4 µM | 2.3 µM | 13.1 µM | 18.4 µM | 2.3 µM | 1.9 µM |
| Cn1ncc(C#Cc2ccc(N3C[C@H](CO)OC3=O)cc2F)c1C(=O)O | > 100 µM | 61.3 µM | > 100 µM | > 100 µM | > 100 µM | > 100 µM | > 100 µM | 88.2 µM | > 100 µM | > 100 µM | > 100 µM | 89.5 µM |
| C[n+]1ccccc1-c1ccc(N2C[C@H](CO)OC2=O)cc1F | 40.4 µM | > 100 µM | > 100 µM | 60.4 µM | > 100 µM | > 100 µM | 72.3 µM | > 100 µM | > 100 µM | > 100 µM | > 100 µM | 33.3 µM |
| O=C1O[C@@H](CO)CN1c1ccc(-c2ccc(O)cc2)c(F)c1 | 5.8 µM | 12.9 µM | 22.1 µM | 2.3 µM | > 100 µM | > 100 µM | 2 µM | 8.4 µM | 27.7 µM | > 100 µM | 8.4 µM | 7.3 µM |
| CC(C)(C)Oc1cc(-c2ccc(N3C[C@H](CO)OC3=O)cc2F)cnc1C#N | > 100 µM | > 100 µM | > 100 µM | > 100 µM | > 100 µM | > 100 µM | > 100 µM | > 100 µM | > 100 µM | > 100 µM | > 100 µM | > 100 µM |
| O=C1O[C@@H](CO)CN1c1ccc(C#Cc2cc(Cl)cc(Cl)c2)c(F)c1 | 16.2 µM | > 100 µM | 12.8 µM | 3.6 µM | > 100 µM | 74.8 µM | 26.1 µM | > 100 µM | > 100 µM | > 100 µM | 64.9 µM | > 100 µM |
